Experimental findings from patent US12448383B2, “Compounds and methods for treatment of viral infections” (priority 2022, dated 2025) are described below.

Bounds are passed on as bounds.

Data set [1] can be described thus: GI S9 stability - no PMSF. In kind it is in vitro ADME. The following applies: pH 7.4; human intestinal S9, PMSF-free; read-out: GIS9-HUMAN-NoPMSF T1/2. In short, it runs like this:
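Stability was assessed by Q-Exactive LC-MS peak area ratios against internal standard, tracking loss of parent and appearance of nucleoside metabolite Reference Compound A. Incubations used 2 μM compound in 1 mg/mL intestinal S9 without PMSF (PBS, pH 7.4), with six samples taken over 120 min.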

The next data set can be described thus: Plasma stability. It counts as in vitro ADME. Particulars: 37° C., 2 μM substrate. Also on record: unit not given here. The method in brief:
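LC-MS (Q-Exactive, 5 ppm tolerance, 0.1% formic acid water/acetonitrile gradient) quantified compound in quenched aliquots. Aliquots were taken at 0.05, 0.5, 1, 2, 3 and 4 hr and quenched with internal-standard solution, and supernatants were diluted with water after centrifugation.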

Data set [2] in a line: CC50 MT4 cytotoxicity (Cell-Titer Glo). It counts as cell-based. The following applies: human. The method in brief: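 CC50 values are the concentrations cutting viability by 50%, fitted by non-linear regression against untreated (100%) and 2 μM puromycin (0%) controls. Cell-Titer Glo luminescence measured after 4-5 days at 37° C exposure of uninfected MT-4 and HEp-2 cells to 3-fold dilutions spanning 15 nM to 100,000 nM.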

The subject of data set [3] is Respiratory syncytial virus recombinant with luciferase (RSV-Luc5) in Normal Human Bronchial Epithelial (NHBE) cells. Kind of data set: microbe, parasite or virus in culture. It counts as cell-based. Particulars: read-out: EC50 RSVFluc-NHBE 384 V2.
For data set [4], the system named is Caco-2 cells (clone C2BBe1). Kind of data set: CACO-2 permeability. Particulars: for DM Caco2 A to B: apical to basolateral, donor pH 6.5, receiver pH 7.4; for DM Caco2 B to A: basolateral to apical. It counts as in vitro ADME. Also on record: unit not given here. The method in brief:
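A-to-B and B-to-A flux measured by LC-MS/MS from receiver samples taken at 1 and 2 h, with donor sampled at 0 and 2 h and recovery checked. Buffers: pH 6.5 HBSS with 200 μM BNPP on the donor side, pH 7.4 with BSA on the receiver side. Monolayers were 21-day cultures, TEER-verified, in duplicate wells.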
On the technique in general: Passage across Caco-2 layers is used to estimate intestinal permeability.

Data set [5] deals with Respiratory syncytial virus recombinant with luciferase (RSV-Luc5) in HEp-2 cells. Kind of data set: microbe, parasite or virus in culture. In kind it is cell-based. The following applies: human respiratory syncytial virus, HEp-2, read-out: EC50 RSVFluc-Hep2 384 V2.
The subject of data set [6] is SARS Coronavirus 2 recombinant with NanoLuc (SARS-CoV2-NLuc) in A549-hACE2 cells. Kind of data set: microbe, parasite or virus in culture. It counts as cell-based. Particulars: A549; read-out: EC50 SARS CoV2 NanoLuc A549 384.

As usually defined, the CC50 is the concentration at which the toxic effect on the cells reaches its halfway point. Usually EC50 stands for the concentration needed to bring the measured effect to its halfway point. For orientation: logD means lipophilicity at a set pH, counting ionised and neutral species. With `N#C[C@@]1(c2ccc3c(N)ncnn23)O[C@H](COC(=O)OCC2(c3ccccc3)CC2)[C@@H](O)[C@H]1O` [Compound 116, ((2R,3S,4R,5R)-5-(4-aminopyrrolo[2,1-f][1,2,4]triazin-7-yl)-5-cyano-3,4-dihydroxytetrahydrofuran-2-yl)methyl ((1-phenylcyclopropyl)methyl) carbonate], the half-life at 2 µM in data set [1] came out at 0.63 min. The “STA Human Plasma 37” value in the data set “Plasma stability” is recorded as 26.4. This compound gave a CC50 in data set [2] of over 50000 nM. Moreover, the values for the EC50 in data set [3], in data set [5] and in data set [6] were 864 nM, 321 nM and 822 nM, respectively. This compound returned a logD in “physchem” of 2.1. In data set [4], the “DM Caco2 A to B” value stood at 4.18. Moreover, the “DM Caco2 B to A” value in data set [4] turned out to be 17.53.
Consider `CC1(C)CC(COC(=O)OC[C@H]2O[C@@](C#N)(c3ccc4c(N)ncnn34)[C@H](O)[C@@H]2O)C1` [Compound 117, ((2R,3S,4R,5R)-5-(4-aminopyrrolo[2,1-f][1,2,4]triazin-7-yl)-5-cyano-3,4-dihydroxytetrahydrofuran-2-yl)methyl ((3,3-dimethylcyclobutyl)methyl) carbonate], for which, in data set [1], the half-life at 2 µM was determined as 0.616 min. In addition, the “STA Human Plasma 37” value in the data set “Plasma stability” is recorded as 86. Also, in data set [2], the CC50 is over 50000 nM. Moreover, the values for the EC50 in data set [3], in data set [5] and in data set [6] were 1380 nM, 494 nM and 778 nM, respectively. The compound also had a logD in “physchem” of 2.3. In addition, the “DM Caco2 A to B” value in data set [4] was determined as 6.18. The “DM Caco2 B to A” value in data set [4] was determined as 10.53.
Consider `N#CC1(COC(=O)OC[C@H]2O[C@@](C#N)(c3ccc4c(N)ncnn34)[C@H](O)[C@@H]2O)CC1` [Compound 118, ((2R,3S,4R,5R)-5-(4-aminopyrrolo[2,1-f][1,2,4]triazin-7-yl)-5-cyano-3,4-dihydroxytetrahydrofuran-2-yl)methyl ((l-cyanocyclopropyl)methyl) carbonate], for which, in data set [1], the half-life at 2 µM was 4.12 min. Further, in the data set “Plasma stability”, the “STA Human Plasma 37” value came to 59.4. The CC50 in data set [2] is over 50000 nM. In addition, the EC50 in data set [3] was determined as 1820 nM; in data set [5] it was 1760 nM; in data set [6], 6800 nM. The compound also registered a logD in the data set “physchem” of 0.7. In data set [4], the “DM Caco2 A to B” value was 0.07. In addition, the “DM Caco2 B to A” value in data set [4] was 1.67.
Take `N#CCC1(COC(=O)OC[C@H]2O[C@@](C#N)(c3ccc4c(N)ncnn34)[C@H](O)[C@@H]2O)CC1` [Compound 119, ((2R,3S,4R,5R)-5-(4-aminopyrrolo[2,1-f][1,2,4]triazin-7-yl)-5-cyano-3,4-dihydroxytetrahydrofuran-2-yl)methyl ((1-(cyanomethyl)cyclopropyl)methyl) carbonate]: the half-life at 2 µM in data set [1] turned out to be 2.98 min. Moreover, the “STA Human Plasma 37” value in the data set “Plasma stability” came out at 40.7. The compound also displayed a CC50 in data set [2] of over 50000 nM. The 50% effective concentration (EC50) turned out to be 2190 nM in data set [3], 2200 nM in data set [5] and 8820 nM in data set [6]. In addition, in the data set “physchem”, the logD turned out to be 0.9. The “DM Caco2 A to B” value in data set [4] was found to be 0.07. In addition, the “DM Caco2 B to A” value in data set [4] is 1.91.
For `N#C[C@@]1(c2ccc3c(N)ncnn23)O[C@H](COC(=O)OCC2(C(F)(F)F)CC2)[C@@H](O)[C@H]1O` [Compound 120, ((2R,3S,4R,5R)-5-(4-aminopyrrolo[2,1-f][1,2,4]triazin-7-yl)-5-cyano-3,4-dihydroxytetrahydrofuran-2-yl)methyl ((1-(trifluoromethyl)cyclopropyl)methyl) carbonate], the half-life at 2 µM in data set [1] was 0.605 min. Moreover, the “STA Human Plasma 37” value in “Plasma stability” worked out at 38.7. The same compound returned a CC50 in data set [2] of over 50000 nM. Moreover, the EC50 amounted to 1260 nM in data set [3], 816 nM in data set [5] and 1410 nM in data set [6]. The logD in “physchem” came to 1.6. Further, the “DM Caco2 A to B” value in data set [4] came out at 0.77. Also, the “DM Caco2 B to A” value in data set [4] came out at 8.35.
On to `N#CC12CC(COC(=O)OC[C@H]3O[C@@](C#N)(c4ccc5c(N)ncnn45)[C@H](O)[C@@H]3O)(C1)C2` [Compound 121, ((2R,3S,4R,5R)-5-(4-aminopyrrolo[2,1-f][1,2,4]triazin-7-yl)-5-cyano-3,4-dihydroxytetrahydrofuran-2-yl)methyl ((3-cyanobicyclo[1.1.1]pentan-1-yl)methyl) carbonate], for which the half-life at 2 µM in data set [1] is 1.58 min. For the same compound, the “STA Human Plasma 37” value in “Plasma stability” was 107.7. For the same compound, the CC50 in data set [2] is over 50000 nM. Further, the 50% effective concentration (EC50) in data set [3] is 1560 nM; in data set [5], 1510 nM; in data set [6] it was 7970 nM. In the data set “physchem”, this compound yielded a logD of 1.1. Besides, the “DM Caco2 A to B” value in data set [4] turned out to be 0.08. The “DM Caco2 B to A” value in data set [4] was found to be 4.15.
For the compound `CC1(COC(=O)OC[C@H]2O[C@@](C#N)(c3ccc4c(N)ncnn34)[C@H](O)[C@@H]2O)CCCC1` [Compound 123, ((2R,3S,4R,5R)-5-(4-aminopyrrolo[2,1-f][1,2,4]triazin-7-yl)-5-cyano-3,4-dihydroxytetrahydrofuran-2-yl)methyl ((1-methylcyclopentyl)methyl) carbonate], the half-life at 2 µM in data set [1] amounted to 0.615 min. In addition, the “STA Human Plasma 37” value in “Plasma stability” turned out to be 96.5. Besides, the CC50 in data set [2] is over 50000 nM. In addition, the results for the EC50 in data set [3], in data set [5] and in data set [6] were 1810 nM, 720 nM and 1160 nM, respectively. The logD in the data set “physchem” was 2.2. In addition, the “DM Caco2 A to B” value in data set [4] was determined as 3.18. The “DM Caco2 B to A” value in data set [4] was found to be 9.88.
As to `CCCCCCCCCCOC(=O)OC[C@H]1O[C@@](C#N)(c2ccc3c(N)ncnn23)[C@H](O)[C@@H]1O` [Compound 124, ((2R,3S,4R,5R)-5-(4-aminopyrrolo[2,1-f][1,2,4]triazin-7-yl)-5-cyano-3,4-dihydroxytetrahydrofuran-2-yl)methyl decyl carbonate], the half-life at 2 µM in data set [1] amounted to 0.744 min. Also, in the data set “Plasma stability”, the “STA Human Plasma 37” value is recorded as 192.3. In data set [2], this compound registered a CC50 of 27600 nM. Also, the EC50 in data set [3] turned out to be 625 nM; in data set [5], 723 nM; in data set [6] it was 1140 nM. Besides, the logD in the data set “physchem” was 3.7. In data set [4], the “DM Caco2 A to B” value was 0.08. In addition, the “DM Caco2 B to A” value in data set [4] was 7.35.
On to `N#C[C@@]1(c2ccc3c(N)ncnn23)O[C@H](COC(=O)OC23CC4CC(CC(C4)C2)C3)[C@@H](O)[C@H]1O` [Compound 154, (3S,5S,7S)-adamantan-1-yl (((2R,3S,4R,5R)-5-(4-aminopyrrolo[2,1-f][1,2,4]-triazin-7-yl)-5-cyano-3,4-dihydroxytetrahydrofuran-2-yl)methyl) carbonate], for which the half-life at 2 µM in data set [1] was determined as 279 min. For the same compound, the “STA Human Plasma 37” value in the data set “Plasma stability” came to 1584. For the same compound, in data set [2], the cytotoxic concentration (CC50) was over 50000 nM. In addition, the figures for the half-maximal effective concentration (EC50) in data set [3], in data set [5] and in data set [6] were 11000 nM, 11700 nM and 34000 nM, respectively. Also, the logD in “physchem” worked out at 2.6. Also, the “DM Caco2 A to B” value in data set [4] was 2.08. Also, the “DM Caco2 B to A” value in data set [4] is listed as 14.67.
`CC1=CCC(C(C)(C)OC(=O)OC[C@H]2O[C@@](C#N)(c3ccc4c(N)ncnn34)[C@H](O)[C@@H]2O)CC1` (stereo partly drawn) [Compound 155, ((2R,3S,4R,5R)-5-(4-aminopyrrolo[2,1-f][1,2,4]triazin-7-yl)-5-cyano-3,4-dihydroxytetrahydrofuran-2-yl)methyl (2-(4-methylcyclohex-3-en-1-yl)propan-2-yl) carbonate]: in data set [1], the half-life at 2 µM came to 77.5 min. The “STA Human Plasma 37” value in “Plasma stability” was 1584. The compound also yielded a CC50 in data set [2] of over 50000 nM. Further, the figures for the EC50 in data set [3], in data set [5] and in data set [6] were 1120 nM, 1570 nM and 3190 nM, respectively. Also, in the data set “physchem”, the logD turned out to be 2.8. Further, the “DM Caco2 A to B” value in data set [4] was determined as 3.06. Besides, in data set [4], the “DM Caco2 B to A” value was 10.35.
